Results published in patent US6495525B1, “VLA-4 inhibitor: oMePUPA-V” (Biogen, Inc., priority 1998, dated 2002).

Tests used:
[1] = Formulated / solution stability (HPLC); format: physicochemical
Oral availability = settings: in vivo
[2] = system: Ascaris suum-sensitive sheep; test: Ovine model of allergic pulmonary inflammation (Ascaris suum allergen challenge); format: in vivo; settings: for EAR (ΔSLR × h): 0-4 h; for LAR (ΔSLR × h): 4-8 h; for PC400 (Post/Pre): carbachol 24 h post-challenge; for early and late airway response, hyperresponsiveness to carbachol (in words): aerosol 2 h before challenge
Excerpt: Allergic sheep weighing between 27-50 kg were used. […] The sheep were conscious and were restrained in a modified shopping cart in the prone position with their heads immobilized. After topical anesthesia of the nasal passages with 2% lidocaine, a balloon catheter was advanced through one nostril into the lower esophagus. The animals were intubated with a cuffed endotracheal tube through the other nostril using a flexible fiberoptic bronchoscope as a guide. All protocols used in this study were approved by the Mount Sinai Medical Center Animal Research Committee, which is responsible for assuring the humane care and use of experimental animals. Pleural pressure was estimated using an esophageal balloon catheter (filled with 1 mL of air), which was positioned 5 to 10 cm from the gastroesophageal-junction. In this position, the end expiratory pleural pressure ranged between −2 to −5-cmH2O. Once the balloon was placed, it was secured so that it remained in the same position for the duration of the experiment. Lateral pressure in the trachea was measured with a sidehole catheter (inner diameter, 2.5 mm) advanced through and positioned distal to the tip of the endotracheal tube.
The tracheal and pleural pressure catheters were connected to a differential pressure transducer (MP45, Validyne, Northridge, Calif.) for the measurement of transpulmonary pressure which was defined as the difference between tracheal and pleural pressure. Airflow was measured by connecting the proximal end of the endotracheal tube to a pneumotachograph (Fleisch, Dyna Sciences, Inc., Blue Bell, Pa.). The signals of transpulmonary pressure and flow were recorded on a multichannel physiological recorder which was linked to a 80-386 DOS Personal Computer for on-line calculation of mean pulmonary flow resistance (RL) by dividing the change in transpulmonary pressure by the change in flow at mid-tidal volume (obtained by digital integration). The mean of at least five breaths, free of swallowing artifact, was used to obtain RL in cmH2O/L/sec. Immediately after the measurement of RL, thoracic gas volume (Vtg) was measured in a constant-volume body plethysmograph to obtain specific lung resistance (SRL=RL×Vtg) in L×cmH2O/L/sec.
All liquid-dose aerosols were generated using a disposable medical air-jet nebulizer (Raindrop®, Puritan Bennett, Lenexa, Kans.) that provided an aerosol with a mass median aerodynamic diameter of 3.2 μm as determined by an Andersen cascade impactor. The nebulizer was connected to a dosimeter system, consisting of a solenoid valve and a source of compressed air (20 psi). The output of the nebulizer was directed into a plastic T-piece, one end of which was connected to the inspiratory port of a piston respirator (Harvard Apparatus, S. Natick, Mass.). The solenoid valve was activated for one second at the beginning of the inspiratory cycle of the respirator. Aerosols were delivered at a tidal volume of 500 mL and a rate of 20 breaths per minute. To assess bronchial responsiveness, cumulative concentration response curves to carbachol were performed by measuring SRL immediately after inhalation of buffer and after each consecutive administration of 10 breaths of increasing concentrations of carbachol (0.25, 0.5, 1.0, 2.0 and 4.0% w/v in buffered saline). The provocation test was discontinued when SRL increased over 400% from the post-saline value or after the highest carbachol concentration had been administered. Bronchial responsiveness was assessed by determining the cumulative carbachol concentration (in breath units) that increased SRL by 400% over the post-saline value (PC400) by interpolation from the dose response curve. One breath unit (BU) was defined as one breath of a 1% w/v carbachol nebulized solution.
Doses of oMePUPA-V were dissolved in either ethanol:normal saline 1:2, ethanol:200 mM sodium phosphate 1:5 or Tris buffer. When using Tris, any required dilution was performed using normal saline. […]

VLA-4 = VLA-4 (Homo sapiens, UniProt P05556+P13612); test: VCAM-Ig Competitive Binding Assay on human PBLs; set-up: endogenous in cells; settings: Mn+2
Excerpt: PBLs, were isolated from peripheral blood of humans, sheep and dogs using methods described for sheep PBL (Abraham, W. M. et al. J. Clin. Invest. 93:776-787, 1994). The VCAM-Ig-AP Competitive Binding Assay was used to compare the binding of oMePUPA-V to these different cell types.

Crystallinity = format: physicochemical
[3] = 0.01 mg aerosol, EtOH:NS, 2 hours prior to allergen challenge
[4] = 0.03 mg aerosol, EtOH:NS, 2 hours prior to allergen challenge
[5] = 0.03 mg once daily for 4 days, EtOH:NS, challenge 24 h after last dose
[6] = 0.03 mg once daily for 4 days, Tris:NS, challenge 24 h after last dose
[7] = 0.10 mg aerosol, EtOH:NS, 2 hours prior to allergen challenge
[8] = 1.00 mg aerosol, EtOH:PBS, 2 hours prior to allergen challenge
[9] = 3.00 mg aerosol, EtOH:PBS, 2 hours prior to allergen challenge

VLA-4, sequence (P13612 34-1032): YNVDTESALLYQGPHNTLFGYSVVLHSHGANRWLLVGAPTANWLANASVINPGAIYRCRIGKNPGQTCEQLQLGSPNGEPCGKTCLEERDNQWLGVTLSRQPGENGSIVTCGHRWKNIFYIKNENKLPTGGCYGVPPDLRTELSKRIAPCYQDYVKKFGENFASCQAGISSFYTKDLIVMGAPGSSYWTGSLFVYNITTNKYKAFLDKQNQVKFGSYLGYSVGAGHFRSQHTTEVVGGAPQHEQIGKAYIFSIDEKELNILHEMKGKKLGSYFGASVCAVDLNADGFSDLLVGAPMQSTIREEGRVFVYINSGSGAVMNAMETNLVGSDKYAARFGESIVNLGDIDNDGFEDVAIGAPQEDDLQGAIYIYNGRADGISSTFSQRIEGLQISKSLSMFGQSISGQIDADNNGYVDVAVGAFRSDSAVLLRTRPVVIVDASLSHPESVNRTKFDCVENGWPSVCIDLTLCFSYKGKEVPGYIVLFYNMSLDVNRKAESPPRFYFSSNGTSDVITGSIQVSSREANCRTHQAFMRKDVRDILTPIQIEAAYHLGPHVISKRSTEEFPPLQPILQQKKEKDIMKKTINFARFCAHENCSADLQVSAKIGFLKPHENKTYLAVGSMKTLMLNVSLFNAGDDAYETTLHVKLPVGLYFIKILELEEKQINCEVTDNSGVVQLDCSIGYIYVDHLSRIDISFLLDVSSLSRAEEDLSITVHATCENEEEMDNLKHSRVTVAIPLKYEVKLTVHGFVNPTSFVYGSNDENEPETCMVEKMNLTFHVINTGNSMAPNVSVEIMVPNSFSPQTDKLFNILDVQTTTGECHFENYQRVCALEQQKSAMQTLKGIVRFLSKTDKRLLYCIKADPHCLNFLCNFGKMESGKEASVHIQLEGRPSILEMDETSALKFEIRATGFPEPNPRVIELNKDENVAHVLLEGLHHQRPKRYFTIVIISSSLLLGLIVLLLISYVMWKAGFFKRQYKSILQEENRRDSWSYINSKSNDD
VLA-4, sequence (P05556 21-798): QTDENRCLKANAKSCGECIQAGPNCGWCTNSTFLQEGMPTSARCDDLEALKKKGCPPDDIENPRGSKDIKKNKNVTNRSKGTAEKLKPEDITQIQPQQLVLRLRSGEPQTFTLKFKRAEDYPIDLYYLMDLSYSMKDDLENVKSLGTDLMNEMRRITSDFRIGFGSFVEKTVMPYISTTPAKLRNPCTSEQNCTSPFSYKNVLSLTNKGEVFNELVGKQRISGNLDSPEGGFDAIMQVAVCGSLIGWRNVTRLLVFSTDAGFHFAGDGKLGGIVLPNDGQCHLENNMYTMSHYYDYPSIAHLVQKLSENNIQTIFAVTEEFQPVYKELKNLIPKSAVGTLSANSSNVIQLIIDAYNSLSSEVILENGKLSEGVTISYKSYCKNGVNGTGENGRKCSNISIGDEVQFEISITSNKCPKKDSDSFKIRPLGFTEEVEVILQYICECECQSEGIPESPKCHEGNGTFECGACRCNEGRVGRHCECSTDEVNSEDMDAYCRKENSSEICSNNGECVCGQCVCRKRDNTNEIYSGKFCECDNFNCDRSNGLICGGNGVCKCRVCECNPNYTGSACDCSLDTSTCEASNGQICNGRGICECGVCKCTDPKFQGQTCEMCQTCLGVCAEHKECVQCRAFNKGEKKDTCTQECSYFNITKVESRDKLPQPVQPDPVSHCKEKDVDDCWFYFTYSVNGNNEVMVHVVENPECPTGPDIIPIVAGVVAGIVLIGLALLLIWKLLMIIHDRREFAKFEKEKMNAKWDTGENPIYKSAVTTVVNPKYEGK

SMILES: Cc1ccccc1NC(=O)Nc1ccc(CC(=O)N2CCC[C@H]2C(=O)N[C@H](C)CC(=O)O)cc1 [oMePUPA-V]
- Formulated stability (40° C.), time stable [1]: stable >4 wk
- Ames test (mutagenicity) (Ames test (mutagenicity)): clean
- Oral availability (Oral availability): <1%
- EAR (ΔSLR × h) [2, 3]: 6.87 ± 0.05 ΔSLR × h
- LAR (ΔSLR × h) [2, 3]: 5.11 ± 1.46 ΔSLR × h
- PC400 (Post/Pre) [2, 3]: 0.44 ± 0.04
- EAR (ΔSLR × h) [2, 4]: 10.62 ± 3.91 ΔSLR × h
- LAR (ΔSLR × h) [2, 4]: 3.98 ± 0.23 ΔSLR × h
- PC400 (Post/Pre) [2, 4]: 0.43 ± 0.00
- EAR (ΔSLR × h) [2, 5]: 1.53 ± 0.34 ΔSLR × h
- LAR (ΔSLR × h) [2, 5]: 0.59 ± 0.16 ΔSLR × h
- PC400 (Post/Pre) [2, 5]: 1.06 ± 0.04
- EAR (ΔSLR × h) [2, 6]: 1.40 ± 0.35 ΔSLR × h
- LAR (ΔSLR × h) [2, 6]: 0.02 ± 0.06 ΔSLR × h
- PC400 (Post/Pre) [2, 6]: 1.04 ± 0.04
- protection against EAR, LAR and hyperresponsiveness (in words) ([2]; 0.03 mg once daily for 4 days, antigen challenge 24 h after the last dose): protective
- EAR (ΔSLR × h) [2, 7]: 2.54 ± 0.74 ΔSLR × h
- LAR (ΔSLR × h) [2, 7]: 0.67 ± 0.17 ΔSLR × h
- PC400 (Post/Pre) [2, 7]: 1.18 ± 0.11
- EAR (ΔSLR × h) [2, 8]: 2.14 ± 0.70 ΔSLR × h
- LAR (ΔSLR × h) [2, 8]: 0.27 ± 0.34 ΔSLR × h
- PC400 (Post/Pre) [2, 8]: 1.05 ± 0.11
- EAR (ΔSLR × h) [2, 9]: 2.47 ± 0.62 ΔSLR × h
- LAR (ΔSLR × h) [2, 9]: 0.68 ± 0.07 ΔSLR × h
- PC400 (Post/Pre) [2, 9]: 1.07 ± 0.08
- Minimum effective dose in sheep model, repeat-dose ([2]; daily for 4 days, antigen challenge 24 hours after the last dose): 1 µg/kg
- early and late airway response, hyperresponsiveness to carbachol (in words) ([2]; doses of 0.01 and 0.03 mg): did not inhibit early or late airway response
- early and late airway response, hyperresponsiveness to carbachol (in words) ([2]; doses of 0.1, 1 and 3 mg): inhibited the early airway response and maximally inhibited the late airway response
- Minimum effective dose in sheep model, single dose ([2]; single nebulized dose 2 hours before antigen challenge): 3 µg/kg
- IC50 (VLA-4): 6 ± 1 nM
- Crystallinity (Crystallinity): YES
